{"source": "paper PMC7376037", "about": "“Recombinant expression, purification and PEGylation of Paneth cell peptide (cryptdin-2) with value added attributes against Staphylococcus aureus” (Scientific Reports, 2020)", "key": {"Staphylococcus aureus [1]": {"tested_on": "Staphylococcus aureus", "assay": "Radial diffusion (agar well diffusion) assay", "format": "cell-based, Staphylococcus aureus (ATCC 9144)", "conditions": "peptide 100 µg/well, overnight 37 °C, S. aureus", "experimental": "Antibacterial activity of all the cryptdin preparations was evaluated by performing radial diffusion assay. […] Following the addition of 20 μL aliquots of the cryptdin-2 preparations along with control sample (PBS) into a series of wells made in the gel, the plates were incubated overnight at 37 °C. The samples were examined for zone of clearance around the wells indicating inhibition of bacterial growth."}, "RAW 264.7 cell lines": {"tested_on": "RAW 264.7 cell lines", "assay": "Cell cytotoxicity assay (AlamarBlue)", "format": "cell-based, murine", "conditions": "24 h", "experimental": "The cytotoxicity of recombinant peptide variants towards RAW 264.7 cell lines was assessed using AlamarBlue (Resazurin), a cell metabolic activity reagent (Sigma)[40]. The log phase cells diluted (2 × 10^5/well) in Dulbecco's Modified Eagle Medium (DMEM) containing 10% fetal bovine serum (FBS) were cultured in 96-well microtiter plates and incubated for 12 h under 5% CO2 conditions at 37 °C. […] Following this, 0.02% Alamar blue reagent was added to the cells and incubated for 8 h. Fluorescence was measured with excitation wavelength at 545 nm and emission wavelength at 590 nm. The percent difference between treated and un-treated cells was calculated to determine percent cytotoxicity."}, "[2]": {"assay": "Serum stability (antimicrobial activity after incubation in mice sera)", "format": "in vitro ADME", "conditions": "for reduction of antibacterial activity after 3 h incubation with mice sera: peptide at its MIC, 50% mice serum, 37 °C, read-out micro broth dilution against S. aureus, repeated thrice in triplicates", "experimental": "The stability of purified peptide preparations in mice sera was evaluated as described previously[15] with some modifications. Briefly, 80 µL of 50% serum was added to each well of 96-well plates followed by addition of 10 µL of bacterial suspension. The total CFU/mL value was adjusted to be identical in all the samples. Each peptide preparation (10 μL) was added to different wells and incubated at 37 °C for 0, 3, and 6 h respectively. The antimicrobial activities were assessed by performing micro broth dilution assay as described above for determination of MIC against S. aureus. The sera of mice were confirmed for absence of any intrinsic antimicrobial activity prior to performing the test."}, "Staphylococcus aureus [3]": {"tested_on": "Staphylococcus aureus", "format": "cell-based", "conditions": "for MIC in combination, Peptides: peptide concentration in combination with gentamicin, checkerboard, S. aureus", "experimental": "To investigate the interactive effect of these recombinant peptides, a checkerboard assay[41] was performed using a clinically prescribed antibiotic (gentamicin) as the other antibacterial agent. The assay employs the same methodology followed for determination of the MIC as described above. MIC values of peptide and gentamicin were used in this assay in order to calculate the FIC values. All the three peptide variants and gentamicin were tried in different ratios to evaluate interaction of the agents in combination against S. aureus. The same was determined on the basis of the FIC index, wherein an index of ≤ 0.5 indicated a synergistic effect and an index > 0.5 and ≤ 2 indicated an additive or indifferent nature of interaction respectively and lastly, the interaction was confirmed to be antagonistic when the index was > 2.0.\nFIC index is expressed as: FIC Index=A1/A+B1/B where A1 and B1 are the respective concentrations of gentamicin and peptide producing the combined MICs, while A and B are the MICs of the individual agents."}, "[4]": {"conditions": "cited from earlier work", "source_text": "However, lesser adverse effect was observed on cell membrane when treated with the PEGylated peptide. These findings correlated well with the increased MIC of the peptide as observed above. It is highly probable that site-specific mutation followed by PEG-conjugat ..."}, "Staphylococcus aureus [5]": {"tested_on": "Staphylococcus aureus", "assay": "microbe, parasite or virus in culture", "format": "cell-based, Staphylococcus aureus (ATCC 9144)", "experimental": "To determine MIC values of the peptide preparations, micro broth dilution assay was performed. Briefly, S. aureus cells were grown to mid-exponential phase and diluted to a concentration of approximately 10^7 CFU/mL. Different concentrations of AMP preparations were separately added to wells containing bacterial suspension (approximately 10^6 CFU/mL) in sterile 96-well flat-bottom plate. After incubation at 37 °C, cell growth inhibition was assessed by measuring the absorbance at 595 nm on microplate reader (BioTek). MIC was recorded as the lowest concentration of the peptide preparation at which no visible growth was observed."}}, "note": "Like-named read-outs stand apart in the source and are kept apart here. Bridge positions count the residues as written; N and C are the ends. Peptide text beside a SMILES is read from it."}
{"molecule": "CSCC[C@@H]1NC(=O)[C@H](CCCNC(=N)N)NC(=O)[C@H](CS)NC(=O)[C@H](CCCNC(=N)N)NC(=O)[C@H](CCCNC(=N)N)NC(=O)[C@H](CCCCN)NC(=O)[C@@H]2CSSC[C@@H]3NC(=O)[C@H](CC(C)C)NC(=O)[C@H]([C@@H](C)O)NC(=O)[C@H](Cc4ccc(O)cc4)NC(=O)[C@H](CCSC)NC(=O)[C@H](CC(C)C)NC(=O)[C@H](Cc4c[nH]cn4)NC(=O)CNC(=O)[C@H](CCCCN)NC(=O)[C@H](CCCNC(=N)N)NC(=O)[C@H](CSSC[C@H](NC(=O)[C@H](Cc4ccc(O)cc4)NC(=O)[C@@H](NC(=O)[C@@H](NC(=O)[C@H](CC(C)C)NC(=O)[C@H](CC(=O)O)NC(=O)[C@H](CCCNC(=N)N)NC(=O)[C@@H](N)CC(C)C)C(C)C)CSSC[C@@H](C(=O)N[C@@H](CCCNC(=N)N)C(=O)O)NC3=O)C(=O)N[C@@H](CCCNC(=N)N)C(=O)N[C@@H]([C@@H](C)O)C(=O)N[C@@H](CCCNC(=N)N)C(=O)NCC(=O)N2)NC(=O)[C@H]([C@@H](C)O)NC(=O)CNC(=O)[C@H](CC(N)=O)NC1=O", "note": "[E18C cryptdin-2] (H-LRDLVCYCRTRGCKRRCRMNGTCRKGHLMYTLCCR-OH; disulfide 6-34, 8-23, 13-33)", "values": [{"measurement": "antimicrobial activity, zone of growth inhibition", "setting": "Staphylococcus aureus [1]", "value": "potent antimicrobial activity"}, {"measurement": "cell viability", "setting": "RAW 264.7 cell lines", "value": "~65", "unit": "%"}, {"measurement": "MIC after incubation with serum, 0 h", "setting": "[2]", "value": 20, "unit": "µg/mL"}, {"measurement": "MIC after incubation with serum, 3 h", "setting": "[2]", "value": 40, "unit": "µg/mL"}, {"measurement": "MIC after incubation with serum, 6 h", "setting": "[2]", "value": 60, "unit": "µg/mL"}, {"measurement": "reduction of antibacterial activity after 3 h incubation with mice sera", "setting": "[2]", "value": 50, "unit": "%"}, {"measurement": "FIC indices", "setting": "Staphylococcus aureus [3]", "value": 0.375}, {"measurement": "MIC in combination, Peptides", "setting": "Staphylococcus aureus [3]", "value": 2.5, "unit": "µg/mL"}]}
{"molecule": "magainin 2", "values": [{"measurement": "decrease in antimicrobial activity after PEG conjugation", "setting": "[4]; 5 kDa PEG at N-terminal end", "value": "fourfold"}]}
{"molecule": "CNC(C)C1CCC(N)C(OC2C(N)CC(N)C(OC3OCC(C)(O)C(NC)C3O)C2O)O1", "note": "(stereo not shown) [Gentamicin, gentamicin, reference compound]", "values": [{"measurement": "MIC", "setting": "Staphylococcus aureus [5]; agent alone against Staphylococcus aureus, Table 1, read-out: MIC", "value": 0.097, "unit": "µg/mL"}]}
{"molecule": "nisin", "values": [{"measurement": "antimicrobial activity after PEGylation", "setting": "[4]; PEGylation via amine group of the lysine side-chain", "value": "inactive conjugate"}]}
{"molecule": "CSCC[C@@H]1NC(=O)[C@H](CCCNC(=N)N)NC(=O)[C@H](CCC(=O)O)NC(=O)[C@H](CCCNC(=N)N)NC(=O)[C@H](CCCNC(=N)N)NC(=O)[C@H](CCCCN)NC(=O)[C@@H]2CSSC[C@@H]3NC(=O)[C@H](CC(C)C)NC(=O)[C@H]([C@@H](C)O)NC(=O)[C@H](Cc4ccc(O)cc4)NC(=O)[C@H](CCSC)NC(=O)[C@H](CC(C)C)NC(=O)[C@H](Cc4c[nH]cn4)NC(=O)CNC(=O)[C@H](CCCCN)NC(=O)[C@H](CCCNC(=N)N)NC(=O)[C@H](CSSC[C@H](NC(=O)[C@H](Cc4ccc(O)cc4)NC(=O)[C@@H](NC(=O)[C@@H](NC(=O)[C@H](CC(C)C)NC(=O)[C@H](CC(=O)O)NC(=O)[C@H](CCCNC(=N)N)NC(=O)[C@@H](N)CC(C)C)C(C)C)CSSC[C@@H](C(=O)N[C@@H](CCCNC(=N)N)C(=O)O)NC3=O)C(=O)N[C@@H](CCCNC(=N)N)C(=O)N[C@@H]([C@@H](C)O)C(=O)N[C@@H](CCCNC(=N)N)C(=O)NCC(=O)N2)NC(=O)[C@H]([C@@H](C)O)NC(=O)CNC(=O)[C@H](CC(N)=O)NC1=O", "note": "[cryptdin-2] (H-LRDLVCYCRTRGCKRRERMNGTCRKGHLMYTLCCR-OH; disulfide 6-34, 8-23, 13-33)", "values": [{"measurement": "MIC", "setting": "Staphylococcus aureus [5]", "value": 20, "unit": "µg/mL"}, {"measurement": "antimicrobial activity, zone of growth inhibition", "setting": "Staphylococcus aureus [1]", "value": "potent antimicrobial activity"}, {"measurement": "cell viability", "setting": "RAW 264.7 cell lines", "value": "approximately 70%"}, {"measurement": "MIC after incubation with serum, 0 h", "setting": "[2]", "value": 20, "unit": "µg/mL"}, {"measurement": "MIC after incubation with serum, 3 h", "setting": "[2]", "value": 40, "unit": "µg/mL"}, {"measurement": "MIC after incubation with serum, 6 h", "setting": "[2]", "value": 70, "unit": "µg/mL"}, {"measurement": "reduction of antibacterial activity after 3 h incubation with mice sera", "setting": "[2]", "value": 50, "unit": "%"}, {"measurement": "MIC in combination, Peptides", "setting": "Staphylococcus aureus [3]", "value": 2.5, "unit": "µg/mL"}]}
